# Results: US6818649B2, “Chromenylmethyl pyrimidinediamines as antibacterial agents” (Basilea Pharmaceutica AG, priority 2000, dated 2004)
row,melting point,Structure (SMILES)
1,196 to 198 °C (dec.),"CCOc1cc(Cc2cnc(N)nc2N)cc2c1OC(C)(C)C=C2c1cccc(N)c1 [Example 56, 5-[4-(3-Amino-phenyl)-8-ethoxy-2,2-dimethyl-2H-chromen-6-ylmethyl]-pyrimidine-2,4-diamine]"
2,204 to 205 °C (dec.),"CCOc1cc(Cc2cnc(N)nc2N)cc2c1OC(C)(C)C=C2c1ccc(F)cc1 [Example 35, 5-[8-Ethoxy-4-(4-fluoro-phenyl)-2,2-dimethyl-2H-chromen-6-ylmethyl]-pyrimidine-2,4-diamine]"
3,191 to 192 °C,"CCOc1cc(Cc2cnc(N)nc2N)cc2c1OC(C)(C)C=C2c1ccc(OC)c(OC)c1 [Example 48, 5-[4-(3,4-Dimethoxy-phenyl)-8-ethoxy-2,2-dimethyl-2H-chromen-6-ylmethyl]-pyrimidine-2,4-diamine]"
4,145 °C (dec.),"CCOc1cc(Cc2cnc(N)nc2N)cc2c1OC(C)(C)C=C2c1cccnc1 [Example 50, 5-(8-Ethoxy-2,2-dimethyl-4-pyridin-3-yl-2H-chromen-6-ylmethyl) -pyrimidine-2,4-diamine]"
5,> 260 °C,"COc1cc(Cc2cnc(N)nc2N)cc2c1OC(C)(C)C=C2c1cccs1 [Example 51, 5-(8-Methoxy-2,2-dimethyl-4-thiophen-2-yl-2H-chromen-6-ylmethyl)-pyrimidine-2,4-diamine]"
6,218 to 219 °C,"CCOc1cc(Cc2cnc(N)nc2N)cc2c1OC(C)(C)C=C2C#CC(C)O (stereo not drawn) [Example 15, 4-[6-(2,4-Diamino-pyrimidin-5-ylmethyl)-8-ethoxy-2,2-dimethyl-2H-chromen-4-yl]-but-3-yn-2-ol]"
7,145 °C (dec.),"CCOc1cc(Cc2cnc(N)nc2N)cc2c1OC(C)(C)C=C2c1cccc(NC(C)=O)c1 [Example 49, N-{3-[6-(2,4-Diamino-pyrimidin-5-ylmethyl)-8-ethoxy-2,2-dimethyl-2H-chromen-4-yl]-phenyl}-acetamide]"
8,127 to 128 °C,"CCOc1cc(Cc2cnc(N)nc2N)cc2c1OC(C)(C)C=C2C(C)(O)CC (stereo not drawn) [Example 44, 2-[6-(2,4-Diamino-pyrimidin-5-ylmethyl)-8-ethoxy-2,2-dimethyl-2H-chromen-4-yl]-butan-2-ol]"
9,253 to 254 °C,"COc1cc(Cc2cnc(N)nc2N)cc2c1OC(C)(C)C=C2c1cccc([N+](=O)[O-])c1 [Example 53, 5-[8-Methoxy-2,2-dimethyl-4-(3-nitro-phenyl)-2H-chromen-6-ylmethyl]-pyrimidine-2,4-diamine]"

# More lines, now with the values behind:
row,Structure (SMILES),melting point
1,"CCOc1cc(Cc2cnc(N)nc2N)cc2c1OC(C)(C)C=C2 [Example 19, 5-(8-Ethoxy-2,2-dimethyl-2H-chromen-6-ylmethyl)-pyrimidine-2,4-diamine]",184 to 186 °C
2,"COc1cc(Cc2cnc(N)nc2N)cc2c1OC(C)(C)C=C2C#CCO [Example 46, 3-[6-(2,4-Diamino-pyrimidin-5-ylmethyl)-8-methoxy-2,2-dimethyl-2H-chromen-4-yl]-prop-2-yn-1-ol]",236 to 237 °C
3,"CCOc1cc(Cc2cnc(N)nc2N)cc2c1OC(C)(C)C=C2CO [Example 13, [6-(2,4-Diamino-pyrimidin-5-ylmethyl)-8-ethoxy-2,2-dimethyl-2H-chromen-4-yl]-methanol]",187 to 189 °C
4,"CCOc1cc(Cc2cnc(N)nc2N)cc2c1OC(C)(C)C=C2c1ccncc1 [Example 47, 5-(8-Ethoxy-2,2-dimethyl-4-pyridin-4-yl-2H-chromen-6-ylmethyl)-pyrimidine-2,4-diamine]",223 to 226 °C
5,"CCOc1cc(Cc2cnc(N)nc2N)cc2c1OC(C)(C)C=C2c1ccsc1 [Example 37, 5-(8-Ethoxy-2,2-dimethyl-4-thiophen-3-yl-2H-chromen-6-ylmethyl)-pyrimidine-2,4-diamine]",217 °C (dec.)
6,"CCOc1ccc(C2=CC(C)(C)Oc3c(OCC)cc(Cc4cnc(N)nc4N)cc32)cc1 [Example 52, 5-[8-Ethoxy-4-(4-ethoxy-phenyl)-2,2-dimethyl-2H-chromen-6-ylmethyl]-pyrimidine-2,4-diamine]",186 to 188 °C
